The test system of the test is BDF1 mice, P288 leukemia ip, survival T/C. Kind of test: NCI In Vivo Anticancer Drug Screen. Data for tumor model P288 Lymphocytic Leukemia (intraperitoneal) in B6D2F1 (BDF1) mice. The settings on record: endpoint: survival time, mean or median, higher = longer survival. As to the method: The antitumor activity of compounds was measured in mice bearing transplantable tumors. Survival or tumor size were measured and the results are expressed as the measurement made in the treated group (T) divided by the measurement made in the vehicle treated control group (C). The tumor model used in this assay is P288 Lymphocytic Leukemia (intraperitoneal) in B6D2F1 (BDF1) mice

The mark [1] stands for this setting: dose: 31.3 mg/kg/injection, schedule: Q01DX010 (ip), vehicle: saline.
Where [2] appears, read: dose: 2.5 mg/kg/injection, schedule: Q01DX010 (ip), vehicle: saline.
The mark [3] stands for this setting: dose: 10.0 mg/kg/injection, schedule: Q01DX010 (ip), vehicle: saline.
Where [4] appears, read: dose: 20.0 mg/kg/injection, schedule: Q01DX010 (ip), vehicle: saline.
The mark [5] stands for this setting: dose: 40.0 mg/kg/injection, schedule: Q01DX010 (ip), vehicle: saline.
Where [6] appears, read: dose: 2.0 mg/kg/injection, schedule: Q01DX010 (ip), vehicle: saline.
The mark [7] stands for this setting: dose: 4.0 mg/kg/injection, schedule: Q01DX010 (ip), vehicle: saline.
Where [8] appears, read: dose: 8.0 mg/kg/injection, schedule: Q01DX010 (ip), vehicle: saline.
Setting [9] is: dose: 16.0 mg/kg/injection, schedule: Q01DX010 (ip), vehicle: saline.
[10] abbreviates: dose: 0.63 mg/kg/injection, schedule: Q01DX Z (ip), vehicle: carboxymethylcellulose (CMC).
[11] abbreviates: dose: 1.25 mg/kg/injection, schedule: Q01DX Z (ip), vehicle: carboxymethylcellulose (CMC).

Here are results for 13 compounds from PubChem BioAssay AID216 (DTP/NCI, 2004).

Several values for one entry are separate records, joined by “and”; a condition that tells them apart may be missing. Equal values may be shown once. Toxic doses and inconclusive results are not listed. Numbered stars: 1 amine (or outer) side, 2 acyl side, 3 side chain; on linkers, the order of the positions; unused ones are H or OH. Bridge positions count the residues as written; N and C are the ends. Square brackets hold non-standard residues; d marks the D form. Peptide text beside a SMILES is read from it. I, II: the chains in the order shown. Actinocin(9to1) = Cc1c2oc3c(C)ccc(C(=O)[*:1])c3nc-2c(C(=O)[*:2])c(N)c1=O; aThr = C[C@H](O)[C@H](N)C(=O)O; NMeV = CN[C@H](C(=O)O)C(C)C; Sar = CNCC(=O)O

Regarding `COc1ccc2c(c1OC)C(=O)O[C@@H]2[C@H]1c2c(cc3c(c2OC)OCO3)CCN1C`, the T/C is 112 % of control (dose: 3.9 mg/kg/injection, schedule: Q01DX010 (ip), vehicle: saline); 112 % of control (dose: 7.8 mg/kg/injection, schedule: Q01DX010 (ip), vehicle: saline); 106 % of control under setting [1].

For `[N-]=[N+]=CC(=O)NCC(=O)NN`, the T/C is 96 % of control (dose: 125.0 mg/kg/injection, schedule: Q01DX Z (ip), vehicle: other); 98 % of control (dose: 250.0 mg/kg/injection, schedule: Q01DX Z (ip), vehicle: other); 92 % of control (dose: 500.0 mg/kg/injection, schedule: Q01DX Z (ip), vehicle: other).

With `Cc1c2oc3c(C)ccc(C(=O)N[C@@H]4C(=O)N[C@H](C(C)C)C(=O)N5CCC[C@H]5C(=O)N(C)CC(=O)N(C)[C@@H](C(C)C)C(=O)O[C@H]4C)c3nc-2c(C(=O)N[C@@H]2C(=O)N[C@H](C(C)C)C(=O)N3CCC[C@H]3C(=O)N(C)CC(=O)N(C)[C@@H](C(C)C)C(=O)O[C@H]2C)c(N)c1=O` (I: [aThr][dV]P[Sar][NMeV] / II: [aThr][dV]P[Sar][NMeV]; ester I:1-I:C, II:1-II:C; linker I:N-II:N via Actinocin(9to1)), under “dose: 0.05 mg/kg/injection, schedule: Q01DX010 (ip), vehicle: other”, the T/C is 155 % of control.

Regarding `CC(=O)O[C@]1(C(C)=O)CC[C@H]2[C@@H]3C[C@H](C)C4=CC(=O)C=C[C@]4(C)[C@@]3(F)[C@@H](O)C[C@@]21C`, the T/C (dose: 2.5 mg/kg/injection, schedule: Q01DX Z (sc), vehicle: steriod suspending solution) is 95 % of control; the T/C (dose: 5.0 mg/kg/injection, schedule: Q01DX Z (sc), vehicle: steriod suspending solution) was 97 % of control; the T/C (dose: 10.0 mg/kg/injection, schedule: Q01DX Z (sc), vehicle: steriod suspending solution) is 101 % of control; the T/C (dose: 12.5 mg/kg/injection, schedule: Q01DX010 (sc), vehicle: steriod suspending solution) is 100 % of control; the T/C (dose: 20.0 mg/kg/injection, schedule: Q01DX Z (sc), vehicle: steriod suspending solution) was 107 % of control; the T/C (dose: 25.0 mg/kg/injection, schedule: Q01DX010 (sc), vehicle: steriod suspending solution) was 106 % of control. For the same compound, the T/C by setting is: (dose: 40.0 mg/kg/injection, schedule: Q01DX Z (sc), vehicle: steriod suspending solution) 118 % of control; (dose: 50.0 mg/kg/injection, schedule: Q01DX010 (sc), vehicle: steriod suspending solution) 112 % of control; (dose: 80.0 mg/kg/injection, schedule: Q01DX Z (sc), vehicle: steriod suspending solution) 100 % of control; (dose: 100.0 mg/kg/injection, schedule: Q01DX010 (sc), vehicle: steriod suspending solution) 93 % of control; (dose: 160.0 mg/kg/injection, schedule: Q01DX Z (sc), vehicle: steriod suspending solution) 90 % of control.

Consider `CC[n+]1c(-c2ccccc2)c2cc(N)ccc2c2ccc(N)cc21`, for which the T/C was 152 % of control under setting [2]; 170 % of control and 228 % of control (dose: 5.0 mg/kg/injection, schedule: Q01DX010 (ip), vehicle: saline); 223 % of control and 285 % of control under setting [3]; 158 % of control and 185 % of control under setting [4]; 100 % of control under setting [5].

On to `C=C1C[C@H]2[C@@H]3C=C(C)C4=CC(=O)CC[C@]4(C)[C@H]3CC[C@]2(C)[C@@]1(OC(C)=O)C(C)=O`, for which the T/C is, setting by setting: (dose: 62.5 mg/kg/injection, schedule: Q01DX010 (sc), vehicle: steriod suspending solution) 88 % of control; (dose: 125.0 mg/kg/injection, schedule: Q01DX010 (sc), vehicle: steriod suspending solution) 94 % of control.

Consider `O=C(Nc1ccc(NC2=NCCN2)cc1)c1ccc(C(=O)Nc2ccc(NC3=NCCN3)cc2)cc1`, for which the T/C was 97 % of control (dose: 0.5 mg/kg/injection, schedule: Q01DX Z (ip), vehicle: saline); 109 % of control (dose: 1.0 mg/kg/injection, schedule: Q01DX Z (ip), vehicle: saline); 157 % of control and 184 % of control under setting [6]; 114 % of control (dose: 2.0 mg/kg/injection, schedule: Q01DX Z (ip), vehicle: saline); 189 % of control and 194 % of control under setting [7]; 152 % of control (dose: 4.0 mg/kg/injection, schedule: Q01DX Z (ip), vehicle: saline). For the same compound, the T/C is 247 % of control and 284 % of control under setting [8]; 203 % of control (dose: 8.0 mg/kg/injection, schedule: Q01DX Z (ip), vehicle: saline); 115 % of control under setting [9]; 105 % of control (dose: 32.0 mg/kg/injection, schedule: Q01DX Z (ip), vehicle: saline).

Turning to `CC(CCC(C)OS(C)(=O)=O)OS(C)(=O)=O` (stereo unspecified), the T/C reads like this: under setting [10], 100 % of control; under setting [11], 88 % of control; under setting [6], 90 % of control; (dose: 2.5 mg/kg/injection, schedule: Q01DX Z (ip), vehicle: carboxymethylcellulose (CMC)) 105 % of control; under setting [7], 90 % of control; (dose: 5.0 mg/kg/injection, schedule: Q01DX Z (ip), vehicle: carboxymethylcellulose (CMC)) 114 % of control. Moreover, the T/C is, setting by setting: under setting [8], 100 % of control; (dose: 10.0 mg/kg/injection, schedule: Q01DX Z (ip), vehicle: carboxymethylcellulose (CMC)) 107 % of control; under setting [9], 104 % of control and 105 % of control and 90 % of control; (dose: 20.0 mg/kg/injection, schedule: Q01DX Z (ip), vehicle: carboxymethylcellulose (CMC)) 90 % of control.

As to `CC[C@H](c1ccc(O)cc1)[C@@H](CC)c1ccc(O)cc1`, the T/C runs as follows: (dose: 8.0 mg/kg/injection, schedule: Q01DX Z (sc), vehicle: steriod suspending solution) 90 % of control; (dose: 16.0 mg/kg/injection, schedule: Q01DX Z (sc), vehicle: steriod suspending solution) 93 % of control; (dose: 31.0 mg/kg/injection, schedule: Q01DX Z (sc), vehicle: steriod suspending solution) 97 % of control; (dose: 62.5 mg/kg/injection, schedule: Q01DX Z (sc), vehicle: steriod suspending solution) 88 % of control and 98 % of control; (dose: 125.0 mg/kg/injection, schedule: Q01DX Z (sc), vehicle: steriod suspending solution) 90 % of control.

For `CN(C)/N=N/c1nc[nH]c1C(N)=O`, the T/C (dose: 25.0 mg/kg/injection, schedule: Q01DX010 (ip), vehicle: saline) was 100 % of control; the T/C (dose: 50.0 mg/kg/injection, schedule: Q01DX010 (ip), vehicle: saline) is 88 % of control; the T/C (dose: 100.0 mg/kg/injection, schedule: Q01DX010 (ip), vehicle: saline) was 94 % of control and 100 % of control; the T/C (dose: 200.0 mg/kg/injection, schedule: Q01DX010 (ip), vehicle: saline) is 100 % of control.

Turning to `N#[N+]c1cnc([O-])[nH]c1=O`, the T/C was 112 % of control under setting [10]; 105 % of control (dose: 1.25 mg/kg/injection, schedule: Q01DX010 (ip), vehicle: saline); 117 % of control under setting [11]; 104 % of control under setting [2]; 155 % of control under setting [3].

For the compound `CCOC(=O)c1[nH]c2ccccc2c1CN(CCCl)CCCl`, the T/C runs as follows: under setting [4], 95 % of control; under setting [5], 100 % of control.

On to `Nc1c(Br)cc2c(c1Br)Cc1cc([N+](=O)[O-])ccc1-2`, for which the T/C (dose: 15.6 mg/kg/injection, schedule: Q01DX010 (ip), vehicle: saline) was 122 % of control; the T/C under setting [1] was 116 % of control; the T/C (dose: 62.5 mg/kg/injection, schedule: Q01DX010 (ip), vehicle: saline) was 111 % of control and 116 % of control; the T/C (dose: 125.0 mg/kg/injection, schedule: Q01DX010 (ip), vehicle: saline) was 116 % of control and 94 % of control; the T/C (dose: 500.0 mg/kg/injection, schedule: Q01DX010 (ip), vehicle: saline) was 88 % of control.
